Legend:
[1] = target: T1, 85 kD portion of human Tiam-1 protein (Homo sapiens, UniProt Q13009); assay: Tiam-1 Rac GEF activity assay (32P-GTP filter binding), 85 kD Tiam-1; assay type: biochemical; details: 85 kD Tiam-1 truncation; room temperature, 10 minutes
T1 construct: This prote in contained an intact PDZ domain, Dbl-homology (DH) domain and adjacent pleckstrin homology (PH) domain; made in house; host or cells: baculovirus-infected Sf9 (S. frugiperda) cells
Description: (§1) The GEF activity of the various Tiam-1 constructs described above was determined in the presence and absence of certain compounds. The following assay was utilized. Reactions were conducted at room temperature in Buffer A (20 mM Hepes pH7.3, 50 mM NaCl, 2 mM DTT, 2 mM MgCl2). All proteins and compounds were diluted to 4× their final concentrations in Buffer A (GTPases were diluted in Buffer A containing 1 μM GDP). To dilute Ascorbyl Stearate, Ascorbyl Palmitate, and Stearic Acid, 25 mM ETOH solutions were slowly added to Buffer A while vortexing vigorously. Other lipids were resuspended in aqueous solution with vortexing and bath sonication and then diluted into Buffer A. Reactions were prepared and at time 0, λ-^32P-GTP (DuPont NEN #NEG006H) was added to 4.5 nM, and after 10 minutes reactions were stopped by filtering onto nitrocellulose filters (Millipore #HAWP02500) and immediately washed with wash buffer (25 mM Tris 7.5, 100 mM NaCl, 30 mM MgCl2). Bound λ-^32P-GTP was measured, using standard techniques.
The 85 kD portion of human Tiam-1 protein was produced in insect cells and purified by affinity chromatography, as described above. This prote in contained an intact PDZ domain, Dbl-homology (DH) domain and adjacent pleckstrin homology (PH) domain (FIG. 3). […] Several other lipids were tested to determine the specificity of activation. […] As a control, experiments were run to determine if IP3, IP2, ascorbic acid, stearic acid and ascorbic acid with stearic acid were sufficient to activate the GEF activity of Tiam-1.

ΔPH versions of Tiam-1 = assay: Tiam-1 Rac GEF activity assay, truncations with deleted C-terminal PH domain; assay type: biochemical, human; details: truncations lacking half of the C-terminal PH domain and the rest of the C-terminus
Description: ΔPH versions of Tiam-1: The oligonucleotides 5′-[…]-3′ SEQ ID NO.24 and 5′-[…]-3′ SEQ ID NO.25 were used as linkers to recircularize Eco47III (4487) and XmaI-digested pAcC4-based expression vectors containing the 135 kD, 106 kD, 85 kD, and 66 kD versions of Tiam-1.
as §1, with “techniques. […]” for “techniques.”

Type I Rac-GEF = assay: Guanine nucleotide exchange activity of Type I Rac-GEF with added PH domain ligand; assay type: biochemical, human; details: Type I form lacking the Dbl insert region
Description: (§2) Two Rac-GEFs were tested for guanine nucleotide activity. Firstly, a Glu-epitope tag (MEYMPMEIRHD) (SEQ ID NO:32) was engineered onto the carboxy-terminal 423 amino acids of the Rac GEF encoded by EST No. 167059 by introducing the oligos 5′-[…]-3′ SEQ ID NO.5 and the complementary 5′-[…]-3′ SEQ ID NO.6 into the XhoI/EcoRI sites of the clone. The protein encoded by this construct is referred to as Type I Rac-GEF.
(§3) Next, the sequence encoding the insertion in the Dbl homology region, as described in Example 1, was engineered into the open reading frame in the expression plasmid pET21a (Novagen). The protein encoded by this construct is referred to as Type II Rac-GEF. The resulting expression plasmids were introduced into E. coli strain BL21(DE3)pLysS (Novagen), and the epitope tagged protein expression was induced with IPTG. The expressed proteins were purified using a resin with the antibody to the Glu-epitope covalently attached. The resulting proteins were partially pure and were assayed for exchange activity on Rac1, RhoA and Cdc42. See, Hart, in U.S. Ser. No. 60/029,979, filed Nov. 6, 1996 now abandoned.

[2] = tested on: Other truncations of Tiam-1, all containing the DH and PH domains; assay: Tiam-1 Rac GEF activity assay, other truncations containing the DH and PH domains; assay type: biochemical, human; details: other Tiam-1 truncations containing DH and PH domains
Description: as §1
(§4) It has been previously reported that Tiam-1 has GEE activity in the absence absence of lipids. See, Michiels, F., Habets, G. G., Stam, J. C., van der Kammen, R. A., and Collard, J. G. (1995) Nature 375,338-340. Those studies used a miouse version containing additional upstream sequences, including the N-terminal PH domain and the coiled-coil region. […]

135 kD Tiam-1 truncation = target: T2, 135 kD Tiam-1 truncation (Homo sapiens, UniProt Q13009); assay: Tiam-1 Rac GEF activity assay (32P-GTP filter binding), 135 kD Tiam-1; assay type: biochemical
T2 construct: made in house; host or cells: baculovirus-infected Sf9 (S. frugiperda) cells
T2 sequence (Q13009 402-1591 limits assumed): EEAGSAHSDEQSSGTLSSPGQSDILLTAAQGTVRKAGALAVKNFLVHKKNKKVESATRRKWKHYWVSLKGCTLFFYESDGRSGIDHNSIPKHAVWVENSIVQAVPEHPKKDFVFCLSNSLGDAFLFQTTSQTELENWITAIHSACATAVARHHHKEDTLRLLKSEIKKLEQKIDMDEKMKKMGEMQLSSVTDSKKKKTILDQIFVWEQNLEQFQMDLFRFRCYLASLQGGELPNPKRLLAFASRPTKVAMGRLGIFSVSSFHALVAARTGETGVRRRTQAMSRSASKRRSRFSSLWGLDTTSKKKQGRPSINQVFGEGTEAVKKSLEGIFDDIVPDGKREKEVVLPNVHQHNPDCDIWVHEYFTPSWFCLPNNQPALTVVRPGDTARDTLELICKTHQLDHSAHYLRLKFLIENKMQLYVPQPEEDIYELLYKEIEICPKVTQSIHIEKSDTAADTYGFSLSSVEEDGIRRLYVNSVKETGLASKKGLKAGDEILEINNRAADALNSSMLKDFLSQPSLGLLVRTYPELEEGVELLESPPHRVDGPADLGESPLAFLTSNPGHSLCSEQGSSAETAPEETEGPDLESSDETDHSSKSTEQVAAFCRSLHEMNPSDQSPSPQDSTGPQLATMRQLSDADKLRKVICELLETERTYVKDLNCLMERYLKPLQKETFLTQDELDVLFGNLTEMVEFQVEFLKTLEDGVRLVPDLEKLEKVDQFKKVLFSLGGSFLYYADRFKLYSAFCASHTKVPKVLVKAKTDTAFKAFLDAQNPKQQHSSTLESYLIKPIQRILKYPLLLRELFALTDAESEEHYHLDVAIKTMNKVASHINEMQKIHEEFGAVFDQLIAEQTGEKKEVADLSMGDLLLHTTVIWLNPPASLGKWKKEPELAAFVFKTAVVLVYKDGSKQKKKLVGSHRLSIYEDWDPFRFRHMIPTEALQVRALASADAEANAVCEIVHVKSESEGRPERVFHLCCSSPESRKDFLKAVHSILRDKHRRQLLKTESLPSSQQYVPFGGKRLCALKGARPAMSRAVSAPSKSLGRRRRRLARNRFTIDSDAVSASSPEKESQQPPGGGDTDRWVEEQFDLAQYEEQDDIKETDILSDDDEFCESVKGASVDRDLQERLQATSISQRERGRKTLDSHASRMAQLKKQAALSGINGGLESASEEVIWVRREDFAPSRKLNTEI
Description: as §1, §4

Type II Rac-GEF = target: T3, Type II Rac-GEF (Homo sapiens, UniProt Q8N5V2); assay: Guanine nucleotide exchange activity of Type II Rac-GEF with added PH domain ligand; assay type: biochemical; details: Type II form containing the Dbl insert region
T3 construct: made in house; host or cells: E. coli BL21(DE3)pLysS, plasmid pET21a
T3 sequence (Q8N5V2 264-710 limits assumed): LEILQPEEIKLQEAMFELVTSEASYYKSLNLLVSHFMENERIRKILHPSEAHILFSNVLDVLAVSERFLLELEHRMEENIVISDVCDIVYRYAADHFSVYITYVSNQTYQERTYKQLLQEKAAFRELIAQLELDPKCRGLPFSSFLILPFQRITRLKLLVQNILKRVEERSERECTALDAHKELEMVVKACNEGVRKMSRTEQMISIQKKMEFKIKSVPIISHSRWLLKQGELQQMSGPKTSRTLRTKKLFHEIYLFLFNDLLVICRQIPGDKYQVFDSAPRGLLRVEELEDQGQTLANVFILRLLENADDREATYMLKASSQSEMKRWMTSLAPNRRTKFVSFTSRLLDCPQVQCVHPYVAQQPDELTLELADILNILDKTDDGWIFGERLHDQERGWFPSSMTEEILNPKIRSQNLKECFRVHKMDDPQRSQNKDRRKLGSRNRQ
Description: as §2, §3

Rac1 = assay: Exchange activity of Rac GEF on Rac1; assay type: biochemical; details: partially pure Glu-tagged protein
Description: as §2, §3

RhoA = assay: Exchange activity of Rac GEF on RhoA; assay type: biochemical; details: partially pure Glu-tagged protein
Description: as §2, §3

Cdc42 = assay: Exchange activity of Rac GEF on Cdc42; assay type: biochemical; details: partially pure Glu-tagged protein
Description: as §2, §3

T1 sequence (Q13009 837-1591 limits assumed): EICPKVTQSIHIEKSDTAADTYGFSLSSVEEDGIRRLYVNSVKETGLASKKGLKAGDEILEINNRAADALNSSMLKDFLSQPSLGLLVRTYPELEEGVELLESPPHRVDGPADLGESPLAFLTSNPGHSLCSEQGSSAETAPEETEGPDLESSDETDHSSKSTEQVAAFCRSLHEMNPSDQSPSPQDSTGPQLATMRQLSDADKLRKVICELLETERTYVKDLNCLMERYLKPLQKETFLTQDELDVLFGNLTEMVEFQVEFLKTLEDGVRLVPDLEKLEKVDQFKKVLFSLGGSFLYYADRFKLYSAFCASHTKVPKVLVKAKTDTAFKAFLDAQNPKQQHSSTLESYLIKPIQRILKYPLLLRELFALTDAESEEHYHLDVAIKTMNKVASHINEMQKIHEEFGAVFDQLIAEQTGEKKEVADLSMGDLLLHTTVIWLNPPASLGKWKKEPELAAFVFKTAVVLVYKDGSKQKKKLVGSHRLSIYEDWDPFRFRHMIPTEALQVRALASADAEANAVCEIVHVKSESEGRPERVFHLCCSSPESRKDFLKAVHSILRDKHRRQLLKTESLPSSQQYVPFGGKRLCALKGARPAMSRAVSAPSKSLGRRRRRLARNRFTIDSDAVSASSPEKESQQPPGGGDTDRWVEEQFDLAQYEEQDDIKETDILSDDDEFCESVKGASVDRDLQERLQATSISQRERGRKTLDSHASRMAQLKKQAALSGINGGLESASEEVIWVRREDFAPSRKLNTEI

Molecule	stimulation of Tiam-1 GEF activity (nucleotide exchange on Rac 1) [1]	other results
O=P(O)(O)O[C@@H]1[C@H](O)[C@H](O)[C@@H](OP(=O)(O)O)[C@H](OP(=O)(O)O)[C@H]1O [IP3]	incapable of stimulating GEF activity	–
O[C@@H](CS)[C@@H](O)CS [DTT]	not to significantly stimulate	–
phosphatidylinositol	little or no effect	–
NP40	not to significantly stimulate	–
O=C1O[C@H]([C@@H](O)CO)C(O)=C1O [ascorbic acid]	incapable of stimulating GEF activity	–
TRITON X-100	not to significantly stimulate	–
O=C(O)CCP(CCC(=O)O)CCC(=O)O [TCEP, Tris (2-carboxyethyl)phosphine]	not to significantly stimulate	–
CCCCCCCCO[C@@H]1O[C@H](CO)[C@@H](O)[C@H](O)[C@H]1O [nOG]	not to significantly stimulate	–
phosphatidylserine	weak effects	–
phosphatidylinositol-4,5-bisphosphate	significantly enhanced	–
phosphatidylglycerol	little or no effect	–
phosphatidylinositol-4-phosphate	significantly enhanced	–
CCCCCCCCCCCCCCCCCC(=O)O [stearic acid]	incapable of stimulating GEF activity	–
CCCCCCCCCCCCCCCC(=O)OC[C@H](O)[C@H]1OC(=O)C(O)=C1O [Ascorbyl palmitate]	significantly enhanced	–
CCCCCCCCCCCCCCCCCC(=O)OC[C@H](O)[C@H]1OC(=O)C(O)=C1O [ascorbyl stearate]	stimulated the rate of Tiam-1-mediated nucleotide exchange	activation of Tiam-1 GEF activity (ΔPH versions of Tiam-1): not activated; effect of addition on exchange activity of Type I Rac-GEF (Type I Rac-GEF): unaffected; stimulation of GEF activity on Rac 1 [2]: stimulated GEF activity; stimulation of Tiam-1 GEF activity towards Rac (135 kD Tiam-1 truncation): greatly stimulated; effect of addition on exchange activity of Type II Rac-GEF (Type II Rac-GEF): strongly stimulated
phosphatidyiholine	little or no effect	–
phosphatidylinositol-3,4,5-trisphosphate	weak effects	–
Rac GEF: Glu-epitope tagged Type I and Type II Rac-GEF proteins expressed in E. coli, partially pure (protein) MEYMPMEIRHDLEILQPEEIKLQEAMFELVTSEASYYKSLNLLVSHFMENERIRKILHPSEAHILFSNVLDVLAVSERFLLELEHRMEENIVISDVCDIVYRYAADHFSVYITYVSNQTYQERTYKQLLQEKAAFRELIAQLELDPKCRGLPFSSFLILPFQRITRLKLLVQNILKRVEERSERECTALDAHKELEMVVKACNEGVRKMSRTEQMISIQKKMEFKIKSVPIISHSRWLLKQGELQQMSGPKTSRTLRTKKLFHEIYLFLFNDLLVICRQIPGDKYQVFDSAPRGLLRVEELEDQGQTLANVFILRLLENADDREATYMLKASSQSEMKRWMTSLAPNRRTKFVSFTSRLLDCPQVQCVHPYVAQQPDELTLELADILNILDKTDDGWIFGERLHDQERGWFPSSMTEEILNPKIRSQNLKECFRVHKMDDPQRSQNKDRRKLGSRNRQ	–	exchange activity on Rac1 (Rac1): primarily selective; exchange activity on RhoA (RhoA): displays activity; exchange activity on Cdc42 (Cdc42): displays activity

— patent US6340575B1, “Methods and compositions for treating abnormal cell growth related to unwanted guanine nucleotide exchange factor activity” (Onyx Pharmaceuticals, Inc., priority 1997, dated 2002)
